Results reported in the supplement of paper PMC6045584.
± gives the standard deviation of the averaged measurements.

Tests used:
[1] = compound: O=C(O)C1(C(=O)O)CCC1.[NH2-].[NH2-].[Pt+2] [CARBOPLATIN]; assay: surviving fraction relative to DMSO-only wells; higher = less growth inhibition; conditions: exposure time: 5 days
Outline: (§1)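 Lines were retained only if, across three screens, replicate Pearson r was >0.7 and median Z' was >0.3. Viability was measured as CellTiter-Glo luminescence and reported as surviving fraction relative to the median of DMSO-only wells. Readings followed 10 minutes at room temperature, after log-phase tumour cells seeded at 250–500 per well in 384-well plates had been exposed, from 24 hours after seeding, continuously for five days to inhibitors at 0.5, 1, 5, 10, 50, 100, 500 and 1000 nM.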

[2] = compound: Cc1ccc(-c2cc(C(F)(F)F)nn2-c2ccc(S(N)(=O)=O)cc2)cc1 [CELECOXIB]; assay: as above; conditions: exposure time: 5 days
Outline: as §1

Test System	surviving fraction ([1]; 0.5 nM)	surviving fraction ([1]; 1 nM)	surviving fraction ([1]; 5 nM)	surviving fraction ([1]; 10 nM)	surviving fraction ([1]; 50 nM)	surviving fraction ([1]; 100 nM)	surviving fraction ([1]; 500 nM)	surviving fraction ([1]; 1000 nM)	surviving fraction ([2]; 0.5 nM)	surviving fraction ([2]; 1 nM)	surviving fraction ([2]; 5 nM)	surviving fraction ([2]; 10 nM)	surviving fraction ([2]; 50 nM)	surviving fraction ([2]; 100 nM)	surviving fraction ([2]; 500 nM)	surviving fraction ([2]; 1000 nM)
SJSA1 BONE	1.68 ± 0.11	1.73 ± 0.089	1.56 ± 0.12	1.64 ± 0.17	0.869 ± 0.07	1.376 ± 0.0032	1.54 ± 0.088	1.16 ± 0.17	1.15 ± 0.061	1.68 ± 0.074	1.6 ± 0.048	1.54 ± 0.045	1.71 ± 0.07	1.81 ± 0.054	1.65 ± 0.039	1.85 ± 0.11
SKBR3 BREAST	1.01 ± 0.098	1.06 ± 0.1	1.06 ± 0.11	0.987 ± 0.2	1.08 ± 0.049	1.04 ± 0.073	1.07 ± 0.073	1.03 ± 0.14	1.15 ± 0.096	1.11 ± 0.11	1.019 ± 0.0061	1.02 ± 0.085	0.999 ± 0.091	1.07 ± 0.042	0.996 ± 0.17	1.08 ± 0.063
SNU475 LIVER	1.04 ± 0.088	1.06 ± 0.038	1.07 ± 0.041	1.05 ± 0.037	1.02 ± 0.075	1.05 ± 0.043	1.01 ± 0.04	1.04 ± 0.036	1.06 ± 0.039	1.08 ± 0.054	1.02 ± 0.03	1.05 ± 0.033	1.07 ± 0.026	1.02 ± 0.046	1.06 ± 0.03	1.11 ± 0.026
SUM44 BREAST	1.15 ± 0.28	1.05 ± 0.14	1.16 ± 0.23	1.01 ± 0.2	1.28 ± 0.27	1.11 ± 0.1	1.2 ± 0.25	1.07 ± 0.079	1.28 ± 0.4	1.25 ± 0.47	1.35 ± 0.54	1.26 ± 0.34	1.36 ± 0.47	1.46 ± 0.53	1.35 ± 0.5	1.37 ± 0.42
SUM149 BREAST	1.02 ± 0.019	1.04 ± 0.13	1.02 ± 0.049	0.943 ± 0.074	0.909 ± 0.06	0.905 ± 0.076	0.927 ± 0.057	0.927 ± 0.077	1.1 ± 0.056	1.09 ± 0.021	1.2 ± 0.035	1.16 ± 0.057	1.08 ± 0.021	1.09 ± 0.13	1.06 ± 0.04	1.12 ± 0.13
SUM149.B1*.S BREAST	1.15 ± 0.096	1.11 ± 0.02	1.12 ± 0.07	1.07 ± 0.025	1.17 ± 0.024	1.2 ± 0.029	1.19 ± 0.052	1.13 ± 0.025	1.075 ± 0.01	1.09 ± 0.021	1.13 ± 0.075	1.12 ± 0.016	1.14 ± 0.055	1.16 ± 0.038	1.12 ± 0.067	1.2 ± 0.029
SUM159 BREAST	1.12 ± 0.024	1.1 ± 0.02	1.1 ± 0.016	1.09 ± 0.024	1.09 ± 0.022	1.09 ± 0.015	1.11 ± 0.022	1.092 ± 0.01	1.07 ± 0.032	1.1 ± 0.031	1.09 ± 0.032	1.08 ± 0.048	1.08 ± 0.014	1.1 ± 0.024	1.07 ± 0.021	1.09 ± 0.017
SYO1 SYNOVIAL	1.04 ± 0.028	0.986 ± 0.023	1.06 ± 0.027	0.9793 ± 0.0044	0.998 ± 0.019	1.01 ± 0.035	0.99 ± 0.065	0.972 ± 0.028	0.952 ± 0.052	0.998 ± 0.055	0.985 ± 0.065	0.9986 ± 0.0091	0.974 ± 0.022	0.955 ± 0.043	0.975 ± 0.07	1.04 ± 0.061
T47D BREAST	1.02 ± 0.049	1.04 ± 0.04	1.04 ± 0.083	1.01 ± 0.019	1.05 ± 0.013	1.05 ± 0.059	1.05 ± 0.028	1.03 ± 0.042	1.08 ± 0.026	1.05 ± 0.081	1.08 ± 0.043	1.08 ± 0.035	1.14 ± 0.054	1.15 ± 0.021	1.11 ± 0.014	1.13 ± 0.012
U2OS BONE	1.04 ± 0.044	1.05 ± 0.046	1.07 ± 0.033	1.1 ± 0.028	1.1 ± 0.049	1.077 ± 0.0098	1.06 ± 0.016	1.05 ± 0.032	0.98 ± 0.055	1.03 ± 0.032		1.03 ± 0.048	1.05 ± 0.032	1.09 ± 0.016	1.01 ± 0.016	1 ± 0.043
VCAP PROSTATE	1.04 ± 0.067	0.996 ± 0.04	1.11 ± 0.072	1.09 ± 0.11	1.05 ± 0.13	1.21 ± 0.086	1.05 ± 0.07	1.04 ± 0.18	1.07 ± 0.068	1.08 ± 0.17	1.06 ± 0.067	1.14 ± 0.1	1.13 ± 0.018	1.12 ± 0.072	1.07 ± 0.029	1.05 ± 0.11
VP229 BREAST	1.12 ± 0.14	1.05 ± 0.022	1.11 ± 0.12	0.961 ± 0.088	1.17 ± 0.21	1.05 ± 0.025	1.19 ± 0.096	0.956 ± 0.14	1.15 ± 0.15	1.21 ± 0.19	1.21 ± 0.12	1.12 ± 0.13	1.15 ± 0.052	1.27 ± 0.03	1.25 ± 0.076	1.4 ± 0.049
YAMATO SYNOVIAL	1.17 ± 0.066	1.33 ± 0.069	1.34 ± 0.11	1.31 ± 0.051	1.34 ± 0.029	1.29 ± 0.11	1.248 ± 0.0092	1.29 ± 0.051	1.3 ± 0.17	1.38 ± 0.056	1.4 ± 0.12	1.47 ± 0.11	1.42 ± 0.11	1.47 ± 0.14	1.39 ± 0.094	1.36 ± 0.21
ZR751 BREAST	1.16 ± 0.2	1.23 ± 0.071	1.14 ± 0.13	1.18 ± 0.23	1.2 ± 0.099	1.18 ± 0.25	1.26 ± 0.15	1.24 ± 0.22	1.1 ± 0.19	1.1 ± 0.077	1.05 ± 0.07	1.07 ± 0.076	1.09 ± 0.084	1.15 ± 0.1	1.06 ± 0.026	1.04 ± 0.19
